# Results: EP0880540B1, “17-BETA-CYCLOPROPYL(AMINO/OXY) 4-AZA STEROIDS AS ACTIVE INHIBITORS OF TESTOSTERONE 5-ALPHA-REDUCTASE AND C17-20-LYASE” (Aventis Pharmaceuticals Inc., priority 1996, dated 1997)
# What was measured:
# [1] = molecular target: T1, cynomolgus monkey C17,20 lyase (Macaca fascicularis, UniProt Q2XVA1); experiment: In vitro C17,20 lyase assay, testicular microsomes; type: biochemical; conditions: mean of duplicates
# T1 construct: microsomal preparations of the enzyme from testicular tissue; from tissue; host or cells: cynomolgus monkey testes, microsomes
# T1 sequence (Q2XVA1 1-508): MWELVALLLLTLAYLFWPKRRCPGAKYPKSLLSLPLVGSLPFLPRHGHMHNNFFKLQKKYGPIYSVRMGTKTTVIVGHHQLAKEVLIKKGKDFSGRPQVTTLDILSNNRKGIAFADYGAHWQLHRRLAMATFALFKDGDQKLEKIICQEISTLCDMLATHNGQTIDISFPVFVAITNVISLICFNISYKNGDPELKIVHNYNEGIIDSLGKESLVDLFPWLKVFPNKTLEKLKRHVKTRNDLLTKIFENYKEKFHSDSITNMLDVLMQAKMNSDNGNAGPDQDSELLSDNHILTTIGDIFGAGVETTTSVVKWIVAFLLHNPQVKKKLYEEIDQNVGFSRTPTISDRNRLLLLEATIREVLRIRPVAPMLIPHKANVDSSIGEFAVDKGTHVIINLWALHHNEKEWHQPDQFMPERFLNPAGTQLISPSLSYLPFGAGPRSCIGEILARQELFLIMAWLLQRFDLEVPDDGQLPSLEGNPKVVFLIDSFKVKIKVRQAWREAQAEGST
# Protocol: In vitro C17,20 lyase assays: Compounds were tested for inhibition of cynomolgus monkey C17,20 lyase in vitro using microsomal preparations of the enzyme from testicular tissue. Testes were removed from anesthetized animals and flash frozen in liquid nitrogen. Microsomes were isolated as described in Schatzman et al., Anal. Biochem. 175, 219-226 (1988). The compound to be tested was dissolved in dimethyl sulfoxide and diluted in 0.05 M potassium phosphate buffer, pH 7.4, to give the desired concentrations of test compound, in an amount which contributed 0.1% v/v DMSO to the total assay volume. Assays contained 0.05 M potassium phosphate buffer, pH 7.4, an NADPH regenerating system (1 mM NADPH, 5 mM glucose-6-phosphate, 1 IU/mL glucose-6-phosphate dehydrogenase), test compound, substrate and microsomal protein in a total volume of 0.2 mL. Control assays contained all components, including dimethyl sulfoxide, but not test ccmpound. All assays were performed in duplicate. The test compound was incubated with 20 to 62 µg/mL microsomal protein, buffer, and the NADPH regenerating system described above at 34°C for 0 or 40 minutes. Aliquots of 180 µL were then removed and assayed for enzyme activity by addition to 7-[^3H]-17α-hydroxypregnenolone (11.2 mCi/mmole; 0.2 µCi per assay) plus unlabeled 17α-hydroxypregnenolone dissolved in DMSO, contributing 2.5% v/v to the final assay mix, and phosphate buffer to give a total substrate concentration of 0.05 µM (=Km) per assay and subsequent incubation at 34°C for 6 minutes. Each assay was terminated by addition of 5 mL of chloroform:methanol (2:1). Carrier steroids representing substrates and produces (17α-hydroxypregnenolone, dehydroepiandrosterone, and androst-5-ene-3β,17β-diol) and 0.8 mL of distilled, deionized water were also added at this time. The steroids were extracted by the method of Moore and Wilson (Methods in Enzymol., eds. O. Malley, B.W. and Hardman, J.G. 36, 1975, pp. 466-474). The organic phase containing the steroids was evaporated using nitrogen gas, the residues dissolved in 18% tetrahydrofuran (v/v) in hexane, and the steroids were separated by HPLC on a Si60 (5 µm) column (250 x 4 mm) using a gradient of 18-22% tetrahydrofuran (v/v) in hexane. Radioactivity in the steroid peaks was measured using a Radiomatic® Model ES or Model A515 Flo-One® detector.
# The enzyme activity for each assay was calculated from the percent conversion of substrate to products, and the results were expressed as percent inhibition of control. The following results were obtained, wherein the values indicated are the mean of duplicate determinations: Table 1: […]
# [2] = test system: Dunning H Tumor; experiment: Dunning H tumor growth in rats; type: in vivo, male Copenhagen rats; conditions: MDL 105831 15 mg/kg/day PO, MDL 15910 50 mg/kg/day PO
# Excerpt: As described in J.T. Isaacs & D.S. Coffey, Cancer Res. 41:5070-5075 (1981); W.J. Ellis & J.T. Issacs, Cancer Res. 45:6041-6050 (1985); T.W. Bedding & A.V. Schally, The Prostate 6:219-232 (1985) and P.E. Juniewicz et al. The Prostate 18:105-115 (1991), male Copenhagen rats were obtained from HARLAN-SPRAGUE-DAWLEY Inc. (Indianapolis, IN), and were individually housed in suspended wire cages and provided laboratory rodent chow (Purina 5001 pellets, Purina Mills, St. Louis, MO) and deionized water ad libum. The rats were anesthetized using sodium pentobarbital and the hair was clipped from the back dorsal area. Tumors from donor Copenhagen rats were cut into fragments of 10 mm^3 and implanted subcutaneously (one site per rat) into the prepared dorsal area.
# Animals were selected (105 days post implantation) for the treatment phase based on tumor size. Ten animals were anesthetized with sodium pentobarbital and bilaterally castrated. The remaining animals were assigned to treatment groups (ten per group) based on mean group tumor size. Animals were kept separate throughout the study. The tested compounds were prepared in solution or suspension in a lecithin vehicle (L-α-phosphatidylcholine type XV-E) containing methylparaben and propylparaben. All treatments were performed by oral gavage (per os) at 2 cc/kg each day of study. Tumor size and rat body weights were recorded every seven days over a period of 35 days. Twenty-four hours after the last treatment animals were euthenized by CO2 and the tumors, prostate, seminal vesicles and testes were removed and weighed. In Table 4, average tumor growth is determined from the corrected group means over a 35 day period after treatment was started. […] The animals eliminated from the calculation of the corrected means were in Figure 6, animals 8, 9, 10; in Figure 7, animals 18, 19 and 20; in Figure 8, animals 27, 28, 29 and 30; and in Figure 9, animals 37, 39 and 40. The castrated controls in Figure 10 present a different problem. Here it is believed that the different tumor volumes observed throughout the group is attributable to the different sizes at the beginning of the study. Since the mean variance here is clearly attributable to factors other than the effect of the castration itself, animals 47, 48, 49 and 50 were deleted from the corrected mean. Of these, animal 47 died during the treatment period.
# Table 4 indicates the average daily growth rate, measured from the corrected mean tumor size on day 35 and day 0, comparing MDL 105831 and flutamide (MDL 15910), a known androgen receptor antagonist. […]
# [3] = test system: PC-82 Human Tumor; experiment: PC-82 human tumor growth in nude mice; type: in vivo, male nude mice; conditions: MDL 103432 and MDL 105831 50 mg/kg B.I.D., MDL 15910 15 mg/kg B.I.D., per os
# Excerpt: As described in van Steenbrugge, G.J. et al., J. Urol 131: 812-817 (1984) van Steenbrugge G.J. et al., The Prostate 11: 195-210 (1987) and Redding, T.W. et al., Cancer Research 52, 2538-2544 (1992), male nude mice (Hsd:athymic, Nude-nu) were obtained from Harlan Sprague Dawley. Mice were housed in sterilized micro-isolators and fed autoclaved ABLE® rodent chow (Purina Mills Inc., St. Louis, MO) and deionized water, adlibitum. Tumor-donating mice were first anesthetized using sodium pentobarbital and then sacrificed by cervical dislocation. The tumor was subsequently excised and placed in a petri dish containing ice-cold Hanks balanced salt solution. Tumors were cut into 2-3 mm cubes for implantation. Recipient animals were first anesthetized with 50 mg/kg pentobarbital, then implanted, by use of a trocar, with tumor fragments (one per mouse) in the dorsal area. Animals were separated into two control groups, one with vehicle alone and the other castrated, and the treatment groups, where n is the number of animals in each group.
# Animals were selected for treatment groups based on tumor size. Each test compound was prepared as a solution or suspension in a lecithin vehicle (L-α-phosphatidylcholine type XV-E) containing methylparaben and propylparaben at a dose volume of 10 cc/kg. Animals were treated for 42 days by oral gavage (per os) seven days per week. Twenty-four hours after the last treatment the animals were euthenized by CO2 and tumors were removed and weighed. During the study period, mice were weighed and palpated weekly for tumors. In Table 5, average tumor growth is determined from the corrected group means over a 28 day period after treatment was started. […] The following animal data was deleted before computation of the corrected mean data in Table 5, Fig. 1: animals 4 and 44; Fig. 2: animals 10, 38 and 42; Fig. 3: Animal 39; Fig. 4: Animals 8, 9 and 49; Fig. 5: Animals 37 and 40 and 41.
# Table 5 illustrates the average tumor growth in animals treated with 4-aza-17β-(cyclopropyloxy)-5α-androstan-3-one (MDL 103432; 50 mg/kg B.I.D.) 4-aza-17β-(cyclopropylamino)-androst-5(6)-en-3-one (MDL 105831; 50 mg/kg B.I.D.) and flutamide (MDL 15,910; 15 mg/kg B.I.D.), a known androgen receptor antagonist. The average growth rate of each tested compound relative to the vehicle and castrated controls is consistent with the in vivo inhibition of androgens.
Compound,inhibition at 0.1 µM ([1]; preincubation 0 min),inhibition at 0.1 µM ([1]; preincubation 40 min),inhibition at 1 µM ([1]; preincubation 0 min),inhibition at 1 µM ([1]; preincubation 40 min),inhibition at 10 µM ([1]; preincubation 0 min),inhibition at 10 µM ([1]; preincubation 40 min),"Tumor Growth in Dunning H Rat, Day 0 ([2]; Day 0 (baseline), corrected group mean)","Tumor Growth in Dunning H Rat, Day 7 ([2]; Day 7, corrected group mean)","Tumor Growth in Dunning H Rat, Day 16 ([2]; Day 16, corrected group mean)","Tumor Growth in Dunning H Rat, Day 21 ([2]; Day 21, corrected group mean)","Tumor Growth in Dunning H Rat, Day 29 ([2]; Day 29, corrected group mean)","Tumor Growth in Dunning H Rat, Day 35 ([2]; Day 35, corrected group mean)",Δv/Δt (day 35-day 0) ([2]; average daily growth rate from corrected mean tumor size),"Tumor Growth in PC-82 Human Tumor in Male Nude Mice, Day 7 ([3]; Day 7, corrected group mean)","Tumor Growth in PC-82 Human Tumor in Male Nude Mice, Day 15 ([3]; Day 15, corrected group mean)","Tumor Growth in PC-82 Human Tumor in Male Nude Mice, Day 21 ([3]; Day 21, corrected group mean)","Tumor Growth in PC-82 Human Tumor in Male Nude Mice, Day 28 ([3]; Day 28, corrected group mean)","Tumor Growth in PC-82 Human Tumor in Male Nude Mice, Day 35 ([3]; Day 35, corrected group mean)","Tumor Growth in PC-82 Human Tumor in Male Nude Mice, Day -4 ([3]; Day -4 (before treatment), corrected group mean)",Δv/Δt (day 35-day 7) ([3]; average tumor growth over 28 days from corrected group means)
"CC12C=CC(=O)N[C@@H]1CCC1C2CCC2(C)C1CC[C@@H]2OC1CC1 (stereo partly drawn) [MDL 103,129, 17β-Cyclopropyloxy-4-aza-5α-androst-1-en-3-one]",6.4%,18.3%,40.7%,46.9%,77.3%,84.3%,–,–,–,–,–,–,–,–,–,–,–,–,–,–
"CN1C(=O)CC[C@@]2(C)C1=CC[C@H]1[C@@H]3CC[C@H](OC4CC4)[C@@]3(C)CC[C@@H]12 (stereo in doubt) [MDL 104,313, 17β-Cyclopropyloxy-4-methyl-4-aza-androst-5-en-3-one]",-18.4%,-8.7%,23.8%,39.9%,63.6%,70.2%,–,–,–,–,–,–,–,–,–,–,–,–,–,–
"CC(C)C(=O)Nc1ccc([N+](=O)[O-])c(C(F)(F)F)c1 [MDL 15910, N-(3-Trifluoromethyl-4-nitro-phenyl)-isobutyramide, reference compound]",–,–,–,–,–,–,317.00 mm^3,604.64 mm^3,877.86 mm^3,851.29 mm^3,1313.57 mm^3,1214.57 mm^3,25.64 mm^3/day,222.7 mm^3,262.9 mm^3,319.7 mm^3,563.4 mm^3,479.3 mm^3,138.7 mm^3,9.16 mm^3/day
